Values quoted from earlier work in patent US7060295B2, “Formulations for the prevention and treatment of insulin resistance and type 2 diabetes mellitus” (ChronoRX LLC, priority 2000, dated 2006).

Assays:
[1] = in vivo
[2] = supplementation
sulfonylurea receptor = sulfonylurea receptor (Homo sapiens, UniProt Q09428); conditions: β-cell membrane receptors
[3] = 1 year, 457 non-diabetic patients with android (abdominal) obesity
[4] = in vivo; remark: listed apart in the source
[5] = in vivo; remark: listed apart in the source
[6] = system: insulin secreting β-cells
[7] = not given; remark: listed apart in the source
[8] = oral 60 mg twice daily for 8 weeks
pancreatic islets = conditions: islets simultaneously exposed to IL-1 beta
[9] = not given; remark: listed apart in the source
[10] = 600 mg/day, used alone, obese type 2 diabetes patients

Chain of sulfonylurea receptor (Q09428 whole entry): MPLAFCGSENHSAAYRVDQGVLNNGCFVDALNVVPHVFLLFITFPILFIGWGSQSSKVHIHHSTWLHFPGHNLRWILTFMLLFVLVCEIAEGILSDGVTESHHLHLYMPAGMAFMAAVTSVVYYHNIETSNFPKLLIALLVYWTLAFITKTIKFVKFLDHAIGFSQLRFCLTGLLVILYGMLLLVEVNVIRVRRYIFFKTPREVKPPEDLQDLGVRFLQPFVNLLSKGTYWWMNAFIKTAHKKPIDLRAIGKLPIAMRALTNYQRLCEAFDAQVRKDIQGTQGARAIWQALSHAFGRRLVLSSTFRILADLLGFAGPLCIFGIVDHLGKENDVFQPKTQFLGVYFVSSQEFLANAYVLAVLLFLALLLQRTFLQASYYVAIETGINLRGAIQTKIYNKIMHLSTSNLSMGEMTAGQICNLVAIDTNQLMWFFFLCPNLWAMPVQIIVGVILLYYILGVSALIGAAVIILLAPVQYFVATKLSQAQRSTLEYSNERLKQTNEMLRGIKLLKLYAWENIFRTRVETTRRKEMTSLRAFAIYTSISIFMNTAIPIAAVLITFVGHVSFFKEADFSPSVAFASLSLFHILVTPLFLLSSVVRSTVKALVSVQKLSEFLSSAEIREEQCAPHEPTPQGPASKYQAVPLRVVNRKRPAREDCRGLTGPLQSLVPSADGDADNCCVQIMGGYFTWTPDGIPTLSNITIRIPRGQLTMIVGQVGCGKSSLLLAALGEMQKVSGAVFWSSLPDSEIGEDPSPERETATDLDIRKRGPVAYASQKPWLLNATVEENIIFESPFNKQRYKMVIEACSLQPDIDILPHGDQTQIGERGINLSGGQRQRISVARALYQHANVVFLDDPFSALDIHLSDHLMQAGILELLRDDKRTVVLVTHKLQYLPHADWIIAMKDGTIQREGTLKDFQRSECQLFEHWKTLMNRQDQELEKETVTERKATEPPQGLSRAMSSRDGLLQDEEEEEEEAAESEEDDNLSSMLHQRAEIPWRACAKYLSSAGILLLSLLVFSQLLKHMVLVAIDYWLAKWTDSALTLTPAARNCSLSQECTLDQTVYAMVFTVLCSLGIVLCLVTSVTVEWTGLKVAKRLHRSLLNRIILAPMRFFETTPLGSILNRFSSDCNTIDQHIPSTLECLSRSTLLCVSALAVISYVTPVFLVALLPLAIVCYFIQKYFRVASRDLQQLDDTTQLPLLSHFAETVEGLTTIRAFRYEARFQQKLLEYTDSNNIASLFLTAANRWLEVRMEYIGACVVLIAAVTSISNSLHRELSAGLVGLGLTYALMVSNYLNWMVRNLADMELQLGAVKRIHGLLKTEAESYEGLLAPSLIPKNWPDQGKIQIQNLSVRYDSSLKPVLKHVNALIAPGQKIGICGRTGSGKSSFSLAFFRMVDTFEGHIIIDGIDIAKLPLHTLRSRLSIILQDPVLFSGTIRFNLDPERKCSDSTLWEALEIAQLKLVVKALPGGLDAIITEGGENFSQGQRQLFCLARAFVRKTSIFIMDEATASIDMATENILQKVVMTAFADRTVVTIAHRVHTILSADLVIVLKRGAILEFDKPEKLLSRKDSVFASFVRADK
Chain of sulfonylurea receptor (Q14654 whole entry partner): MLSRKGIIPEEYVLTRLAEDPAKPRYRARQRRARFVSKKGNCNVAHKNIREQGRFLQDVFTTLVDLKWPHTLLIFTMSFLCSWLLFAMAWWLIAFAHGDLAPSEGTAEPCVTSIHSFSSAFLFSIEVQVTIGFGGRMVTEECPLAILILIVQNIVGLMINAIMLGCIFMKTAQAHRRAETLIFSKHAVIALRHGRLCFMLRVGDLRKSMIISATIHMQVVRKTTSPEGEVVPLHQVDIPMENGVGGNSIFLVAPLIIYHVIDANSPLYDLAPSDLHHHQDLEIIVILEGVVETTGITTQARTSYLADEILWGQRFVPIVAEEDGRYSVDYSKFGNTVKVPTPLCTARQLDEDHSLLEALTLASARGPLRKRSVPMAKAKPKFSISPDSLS

Q: With `CC(=O)c1ccc(S(=O)(=O)NC(=O)NC2CCCCC2)cc1` [Acetohexamide] as the compound, how does the “Duration of Action” value [1] read?
A: The value was 12 to 18 h.

Q: With `CCCNC(=O)NS(=O)(=O)c1ccc(Cl)cc1` [Chlorpropamide] as the compound, how does the “Duration of Action” value [1] read?
A: Its value is 60 h.

Q: For `[Cr]` [Cr, Chromium], which “reduction of metformin requirements” value [2] is on record?
A: Its value is “more than one-half”.

Q: For `CCC1=C(C)CN(C(=O)NCCc2ccc(S(=O)(=O)NC(=O)N[C@H]3CC[C@H](C)CC3)cc2)C1=O` [Glimepiride], which “Duration of Action” value [1] is on record?
A: The value was 16 to 24 h.

Q: Which “Duration of Action” value [1] does the source give for `Cc1cnc(C(=O)NCCc2ccc(S(=O)(=O)NC(=O)NC3CCCCC3)cc2)cn1` [Glipizide (XL), Glipizide] here?
A: The value was 24 h.

Q: Which results are given for `Cc1cnc(C(=O)NCCc2ccc(S(=O)(=O)NC(=O)NC3CCCCC3)cc2)cn1` [Glipizide]?
A: concentration range that saturates sulfonylurea receptors (sulfonylurea receptor): low nM; Duration of Action [1]: 12 to 24 h

Q: Which “glycolytic flux and lactate production” value (perfused rat hearts) does the source give for `COc1ccc(Cl)cc1C(=O)NCCc1ccc(S(=O)(=O)NC(=O)NC2CCCCC2)cc1` [Glyburide] here?
A: Its value is “dramatic increase”.

Q: For `CN(C)C(=N)N=C(N)N` [Metformin, metformin], which weight change [3] is on record?
A: Its weight change is “significant weight loss”.

Q: What about the “lactic acidosis, reported frequency” value [4] of the same compound?
A: The value was 3 cases per 100,000 patient-years.

Q: What about the “lactic acidosis, reported incidence” value [4] of the same compound?
A: Its value is 0.03 /1,000 patient-years exposure.

Q: And the “decrease of low-density lipoprotein (LDL) cholesterol levels” value (monotherapy)?
A: The value was 10% to 15%.

Q: What about the “decrease of plasma triglyceride levels” value (monotherapy) of the same compound?
A: The value was 10% to 15%.

Q: And the weight loss (patients with type 2 diabetes, first 6 months of treatment)?
A: Its weight loss is 2 to 3 kg.

Q: And the “gastrointestinal side effects (diarrhea, nausea, abdominal pain, metallic taste)” value [5]?
A: Its value is 20% to 30%.

Q: For `CCCCNC(=O)NS(=O)(=O)c1ccc(C)cc1` [Tolbutamide], which “Duration of Action” value [1] is on record?
A: Its value is 6 to 12 h.

Q: Which “decrease of cellular insulin glycation” value [6] does the source give for `O=C1O[C@H]([C@@H](O)CO)C(O)=C1O` [ascorbate, ascorbic acid] here?
A: The value was 66–80%.

Q: For `C[N+](C)(C)CC(O)CC(=O)[O-]` (stereo not drawn) [carnitine, beta-hydroxy-gamma-N-trimethylaminobutyric acid], which “amount absorbed from the intestine” value ([7]; oral) is on record?
A: Its value is 15 to 87 % of ingested carnitine.

Q: And the “tissue concentrations relative to plasma” value ([7]; skeletal and cardiac muscle, active transport)?
A: The value was 20- to 50 fold.

Q: Which HDL-cholesterol [8] does the source give for `COC1=C(OC)C(=O)C(C/C=C(\C)CC/C=C(\C)CC/C=C(\C)CC/C=C(\C)CC/C=C(\C)CC/C=C(\C)CC/C=C(\C)CC/C=C(\C)CC/C=C(\C)CCC=C(C)C)=C(C)C1=O` [coenzyme Q10, Ubiquinone] here?
A: The HDL-cholesterol was “increased”.

Q: And the “systolic and diastolic blood pressure, fasting and 2-h plasma insulin, glucose, triglycerides, lipid peroxides, malondialdehyde and diene conjugates” value [8]?
A: Its value is “all reduced”.

Q: For `NC(=O)c1cccnc1` [nicotinamide], which “concentration of maximum effect on recovery of glucose-induced insulin secretion” value (pancreatic islets) is on record?
A: The value was 25 mmol/L.

Q: With `O=S(=O)([O-])[O-].[O]=[V+2]` [vanadyl sulfate] as the compound, how does the “duration of effects after discontinuation” value ([9]; 100 mg/day for 3 weeks) read?
A: The value was “up to 2 weeks”.

Q: What about the “hepatic and peripheral insulin sensitivity” value ([9]; 100 mg/day, after 3 weeks) of the same compound?
A: Its value is “appear to improve”.

Q: For vitamin E, which insulin efficiency [10] is on record?
A: The insulin efficiency was “further worsen insulin efficiency”.
